Laboratory results taken from patent US5328838A, “Method for identifying and/or isolating genes which code for membrane receptors” (Enichem Partecipazioni S.p.A., priority 1990, dated 1994).

Test system: human β2-adrenergic receptor, β-galactosidase fusion protein expressed from λβ2 (λgt11) in E. coli Y1089
Conditions: 20 pM ICYP; non-radiolabeled agonists at 10^-8, 10^-8 and 10^-4 M; FIG. 3
Description: In order to further characterize the specificity of the test by replication on filters, 3 β-adrenergic agonists were tested on [λβ2] cells in bond-competition tests.
The bacterial cells were seeded on slabs of LB-agar of 10 cm of diameter and were grown for 12 hours at 30° C. Circular nitrocellulose filters (of 8.5 cm of diameter), previously drenched in 10 mM IPTG in the case of the expression of [λgt11], [λβ1] and [λβ2] lysogens were then laid above the bacterial colonies; the expression of proteins was induced for 2 hours, at 30° C. for the lysogenic colonies, and at 42° C. for the colonies transformed with pUEX1 and pUEXβ2, before the removal of the filters. The subsequent treatments were carried out at room temperature, with constant rocking. The replications on filter of the bacterial colonies were first incubated for 60 minutes in 10 ml of bond-establishing buffer (90 mM NaCl, 10 mM Tris-HCl pH 7.5) containing 20 mg/ml of bovine serumalbumin, and were then transferred for 90 minutes in 10 ml of bond-establishing buffer containing 20 mg/ml of bovine serumalbumin and 20 pM ICYP (2000 Ci/mmol, Amersham, U.K.). […]

Compound	order of power of competition for the bond of ICYP
CNC[C@H](O)c1ccc(O)c(O)c1 [epinephrine, (-)-epinephrine]	isoprotenerol>epinephrine>norepinephrine
NC[C@H](O)c1ccc(O)c(O)c1 [norepinephrine, (-)-norepinephrine]	isoprotenerol>epinephrine>norepinephrine
